Source: patent US6825230B2, “Spiro and dispiro 1,2,4-trixolane antimalarials” (Medicines for Malaria Venture MMV, priority 2002, dated 2004)

Legend:
[1] = Differential scanning calorimetry (DSC) thermal stability; type: physicochemical; conditions: thermal decomposition
[2] = tested on: P. berghei ANKA strain; assay: Onset of action and recrudescence experiment, single 100 mg/kg po; type: in vivo, Plasmodium berghei; conditions: single 100 mg/kg po (SSV) on day +3 post-infection; recrudescence = >5% parasitemia; followed up to 60 days; groups of five

Tm, dec (DSC) [1]: 181 °C
Structure (SMILES): C[C@@H]1CC[C@H]2[C@@H](C)C(=O)O[C@@H]3O[C@@]4(C)CC[C@@H]1[C@]32OO4 [Artemisinin, artemisinin, reference compound]
Time of Recrudescence [2]: 8.4 days
